Values quoted from earlier work as cited in patent US20260275282A1, “CELLS BEING HIGHLY ENRICHED IN SASP FACTORS, AND COMPOSITION COMPRISING SAID CELLS” (EVOMEDIS GMBH, priority 2022, published 2026).
Where two headings read alike, the source gives them in different places. Peptide text beside a SMILES is read from it.

Assays:
[1] = tested on: protein secretion (SASP factor secretion)
proteasome = details: Inhibitor of proteasome; read-out: Concentration (IC50)
microtubules assembly = details: half of the maximal concentration necessary to inhibit the microtubules assembly
PI3K-mTOR = details: Dual inhibitor of PI3K-mTOR; read-out: Concentration (IC50)
kinesin = details: Kinesin inhibitors: Group V; read-out: Concentration (IC50)
autophagy = details: BH3 domain mimetics; read-out: Concentration (IC50)
[2] = concentration range that results in significant reduction, preferably inhibition, of SASP factor secretion

| Compound | Concentration [1, 2] [µM] | also measured |
| --- | --- | --- |
| Oc1ccc(C=Cc2cc(O)cc(O)c2)cc1 [Resveratrol] | 12.5 to 50 | – |
| CNC(=O)c1cc(Oc2ccc(NC(=O)Nc3ccc(Cl)c(C(F)(F)F)c3)cc2)ccn1 [Sorafenib] | 5 to 10 | – |
| C1CCC(C(CC2CCCCN2)C2CCCCC2)CC1 (centres unmarked) [Perhexiline] | 10 | – |
| CC[C@@]1([C@@H]2O[C@@H]([C@H]3O[C@@](O)(CO)[C@H](C)C[C@@H]3C)C[C@@H]2C)CC[C@H]([C@]2(C)CC[C@]3(C[C@H](O)[C@@H](C)[C@@H]([C@@H](C)[C@@H](OC)[C@H](C)C(=O)O)O3)O2)O1 [Monensin] | 10 | – |
| O=CC[C@@H](O)[C@H](O)[C@H](O)CO [2-Deoxyglucose] | 50000 | – |
| CC[C@]1(O)C[C@H]2CN(CCc3c([nH]c4ccccc34)[C@@](C(=O)OC)(c3cc4c(cc3OC)N(C=O)[C@H]3[C@@](O)(C(=O)OC)[C@H](OC(C)=O)[C@]5(CC)C=CCN6CC[C@]43[C@@H]65)C2)C1 [Vincristine] | – | IC50 (microtubules assembly): 0.8 nM |
| C[C@@H](N)[C@H]1CC[C@H](C(=O)Nc2ccncc2)CC1 [Y27632] | 5 | – |
| CNCCC(Oc1ccc(C(F)(F)F)cc1)c1ccccc1 (centres unmarked) [Fluoxetine] | 30 to 100 | – |
| CN(C)CCCN1c2ccccc2CCc2ccccc21 [Imipramine] | 1 | – |
| C[C@@H]1CN2CCC[C@H]3CCCCCC[C@H]4CCN5CCC[C@@](O)(CCCCCC[C@@H]1O[C@H]32)[C@H]5O4 [Xestospongin B] | 0.08 to 10 | – |
| NC(=O)N1CCC(CC(=O)N2CCC([C@H]3c4ncc(Br)cc4CCc4cc(Cl)cc(Br)c43)CC2)CC1 [Lonafarnib] | 5 | – |
| CN(C)C(=N)N=C(N)N [Metformin] | 5 | – |
| Oc1cccc(-c2nc(N3CCOCC3)c3oc4ncccc4c3n2)c1 [PI-103] | – | IC50 (PI3K-mTOR): 8 to 150 nM |
| CC(=O)N[C@@H](CC(C)C)C(=O)N[C@@H](CC(C)C)C(=O)N[C@H](C=O)CCCNC(=N)N [Leupeptin] | 0.08 to 0.096 | – |
| CC[C@]12C=CCN3CC[C@@]4(c5cc([C@@]6(C(=O)OC)C[C@@H]7C[C@@H](C(C)(F)F)CN(Cc8c6[nH]c6ccccc86)C7)c(OC)cc5N(C)[C@H]4[C@@](O)(C(=O)OC)[C@@H]1OC(C)=O)[C@@H]32 [Vinflunine] | – | IC50 (microtubules assembly): 0.8 nM |
| CC(=O)O[C@H]1C(=O)[C@@]2(C)[C@H]([C@H](OC(=O)c3ccccc3)[C@]3(O)C[C@H](OC(=O)[C@H](O)[C@@H](NC(=O)c4ccccc4)c4ccccc4)C(C)=C1C3(C)C)[C@]1(OC(C)=O)CO[C@@H]1C[C@@H]2O [Paclitaxel (Taxol), Paclitaxel] | – | IC50 (microtubules assembly): 8 nM |
| CC(Oc1ccc(O)cc1)(P(=O)(O)O)P(=O)(O)O [L-690,330] | 100 | – |
| CC(NCCC(c1ccccc1)c1ccccc1)c1ccccc1 (centres unmarked) [Fendiline] | 1 to 100 | – |

| Compound | Concentration [1, 2] [µM] | also measured |
| --- | --- | --- |
| Cn1cnc(N)c2ncnc1-2 [3-Methyladenine] | 5000 | – |
| CN[C@H]1CC[C@@H](c2ccc(Cl)c(Cl)c2)c2ccccc21 [Sertraline] | 10 | – |
| CCCC[C@@H](C=O)NC(=O)[C@H](CC(C)C)NC(=O)OCc1ccccc1 [Calpeptin] | – | Concentration ([1]; 1 mM extracellular Ca2 - calcium dependent): 80 μM (1 mM |
| COc1cc2c(c(OC)c1OC)-c1ccc(OC)c(=O)cc1[C@@H](NC(C)=O)CC2 [Colchicine] | 2 to 5 | – |
| CSCC[C@@H](C=O)NC(=O)[C@H](CC(C)C)NC(=O)[C@H](CC(C)C)NC(C)=O [Calpain inhibitor II, N-acetyl-leucyl-leucyl-methioninal] (Ac-Leu-Leu-Met-aldehyde) | 10 | – |
| Cc1ccc(C(=O)N(CCCN)[C@@H](c2nc3cc(Cl)ccc3c(=O)n2Cc2ccccc2)C(C)C)cc1 [Ispinesib (SB715992), Ispinesib] | – | IC50 (kinesin): 10000 to 30000 nM |
| CCC1=C[C@@H]2CN(C1)Cc1c([nH]c3ccccc13)[C@@](C(=O)OC)(c1cc3c(cc1OC)N(C)[C@H]1[C@@](O)(C(=O)OC)[C@H](OC(C)=O)[C@]4(CC)C=CCN5CC[C@]31[C@@H]54)C2 [Vinorelbine] | – | IC50 (microtubules assembly): 0.8 nM |
| CN(C)CC[C@H](CSc1ccccc1)Nc1ccc(S(=O)(=O)NC(=O)c2ccc(N3CCN(Cc4ccccc4-c4ccc(Cl)cc4)CC3)cc2)cc1[N+](=O)[O-] [ABT-737] | – | IC50 (autophagy): 5000 to 10000 nM |
| CC[C@]1(O)C[C@@H]2CN(CCc3c([nH]c4ccccc34)[C@@](C(=O)OC)(c3cc4c(cc3OC)N(C)[C@H]3[C@@](O)(C(N)=O)[C@H](O)[C@]5(CC)C=CCN6CC[C@]43[C@@H]65)C2)C1 [Vindesine] | – | IC50 (microtubules assembly): 0.8 nM |
| O=C(CCCN1CCC2(CC1)C(=O)NCN2c1ccccc1)c1ccc(F)cc1 [Spiperone] | 10 to 20 | – |
| C/C1=C/C[C@@H](/C(C)=C/c2csc(C)n2)OC(=O)C[C@H](O)C(C)(C)C(=O)[C@H](C)[C@@H](O)[C@@H](C)CCC1 [Desoxyepothilone B] | – | IC50 (microtubules assembly): 13 nM |
| CCCCc1ccc2[nH]c(NC(=O)OC)nc2c1 [Parbendazole] | 10 | – |
| CC[C@]1(O)C[C@@H]2CN(CCc3c([nH]c4ccccc34)[C@@](C(=O)OC)(c3cc4c(cc3OC)N(C)[C@H]3[C@@](O)(C(=O)OC)[C@H](OC(C)=O)[C@]5(CC)C=CCN6CC[C@]43[C@@H]65)C2)C1 [Vinblastine] | – | IC50 (microtubules assembly): 0.8 nM |
| Methyl-β-cyclodextrin | – | Concentration in combination with Vinblastine ([1]; + 2-5 nM Vinblastine, actin depolymerizer with microtubule targeting-agent): 1 mM + 2-5 nM |
| COC(=O)Nc1nc2ccc(C(=O)c3cccs3)cc2[nH]1 [Nocodazole] | – | IC50 (microtubules assembly): 0.8 nM |
| CCCC[C@@H](C)/C=C(C)/C=C(\C)C(=O)NC1=C[C@@](O)(/C=C/C=C/C=C/C(=O)NC2=C(O)CCC2=O)[C@@H]2O[C@@H]2C1=O [Manumycin A] | 1 | – |
| Fc1ccc([C@@H]2CCNC[C@H]2COc2ccc3c(c2)OCO3)cc1 [Paroxetine] | 10 to 20 | – |
| COc1ccc(CCN2CCC(Nc3nc4ccccc4n3Cc3ccc(F)cc3)CC2)cc1 [Astemizole] | 20 to 40 | – |
| Cyclclosporine A | 10 to 40 | – |
